From PubChem BioAssay (NCI)
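Following 48 hours of exposure in 96-well plates, responses at five concentrations were used to interpolate endpoints linearly. The concentration for full growth arrest is given as TGI.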

How the values were obtained:
Test in all cases: NCI-60 cell line screen, 48 h
U251 CNS = test system: U251 CNS
A498 renal = test system: A498 renal
SK-MEL-5 melanoma = test system: SK-MEL-5 melanoma
COLO 205 colon = test system: COLO 205 colon
M14 melanoma = test system: M14 melanoma
SW-620 colon = test system: SW-620 colon
RPMI-8226 leukemia = test system: RPMI-8226 leukemia
HCT-116 colon = test system: HCT-116 colon
RXF 393 renal = test system: RXF 393 renal
SF-295 CNS = test system: SF-295 CNS
SK-MEL-2 melanoma = test system: SK-MEL-2 melanoma
SF-539 CNS = test system: SF-539 CNS
IGROV1 ovarian = test system: IGROV1 ovarian
UO-31 renal = test system: UO-31 renal
MCF7 breast = test system: MCF7 breast
DU-145 prostate = test system: DU-145 prostate
T-47D breast = test system: T-47D breast
MDA-N = test system: MDA-N
BT-549 breast = test system: BT-549 breast

Structure (SMILES)	TGI (U251 CNS) [µM]	TGI (A498 renal) [µM]	TGI (SK-MEL-5 melanoma) [µM]	TGI (COLO 205 colon) [µM]	TGI (M14 melanoma) [µM]	TGI (SW-620 colon) [µM]	TGI (RPMI-8226 leukemia) [µM]	TGI (HCT-116 colon) [µM]	TGI (RXF 393 renal) [µM]	TGI (SF-295 CNS) [µM]	TGI (SK-MEL-2 melanoma) [µM]	TGI (SF-539 CNS) [µM]	TGI (IGROV1 ovarian) [µM]	TGI (UO-31 renal) [µM]	TGI (MCF7 breast) [µM]	TGI (DU-145 prostate) [µM]	TGI (T-47D breast) [µM]	TGI (MDA-N) [µM]	TGI (BT-549 breast) [µM]
CCOC(=O)C(C(=O)OCC)S(C)(=O)=O	> 100	> 100	> 100	> 100	> 100	> 100	> 100	> 100	> 100	> 100	> 100	> 100	> 100	> 100					
O=C(O)CCC1(CCC(=O)O)CCCCCCCCC(CCC(=O)O)(CCC(=O)O)C(=O)C1=O	> 100			> 100	> 100	> 100	> 100	> 100		> 100	> 100	> 100			> 100	> 100	> 100		
CC(C)(CN1CCCCC1)C(=O)CC(SCCS(=O)(=O)O)c1ccccc1 (configuration not stated)	53.2	32.1	31.4	27.6	26	28.8	46.9	18.2	35	26.5	96.5	60.3	> 100	25.1	33.4	29.3		34.6	49.4
CC(C)(C)C1CCC2c3c([nH]c4ccccc34)C3C(=O)N(c4cc(Cl)ccc4Cl)C(=O)C3C2C1 (configuration not stated)		> 100	> 100	> 100	> 100	> 100	> 100	> 100	> 100	> 100	> 100	> 100	> 100	> 100	> 100	> 100		> 100	> 100
O=C(OCC1CC(C2(O)CCCCC2)C(=O)O1)c1ccccc1 (configuration not stated)	> 100	> 100	> 100	> 100	> 100	> 100	> 100	> 100	> 100	> 100	> 100	> 100	> 100	> 100	> 100	> 100			> 100
CC1=NC(=O)CNN1C1=NNC2(C(=O)N1)c1ccccc1-c1ccccc12	> 100	> 100	> 100	> 100	> 100	> 100		> 100	> 100	> 100	> 100	> 100	> 100	> 100	> 100	> 100		> 100	> 100
CC(C)(Cl)C(Cl)CC/C(CBr)=C(\Cl)CBr (configuration not stated)	3.57	> 58.2	3.74	8.1	3.22	3.28		5.89	3.78	16	3.28	5.53	3.66	8.86	6.97	20.1		3.65	3.27
Nc1nc(N)c2c(-c3ccccc3)ccnc2n1	> 100	> 100	> 100	> 100		> 100	> 100	> 100	> 100	> 100	> 100		> 100	> 100	> 100	> 100		> 100	> 100
CCOC(=O)C1=C(C)C2C3C(=O)OC(=O)C3C1(C)C1C(=O)OC(=O)C21 (configuration not stated)	> 100	> 100	> 100	> 100	> 100	> 100	> 100	> 100	> 100	> 100	> 100	> 100	> 100	> 100					
O=C(Nc1ccccc1)c1cc2cc(CCl)ccc2oc1=O	> 100	26.1	> 100	> 100	> 100	> 100	> 100	> 100	> 100	> 100	> 100		> 100	> 100	82.9	> 100	> 100		> 100
O=[N+]([O-])c1ccc(C2NC(=S)NC3c4cc([N+](=O)[O-])ccc4CCCC23)cc1 (configuration not stated)	> 100	> 100	> 100	> 100	> 100	> 100	> 100	> 100	45.2	> 100	> 100	> 100	> 100	> 100	> 100	> 100	> 100		> 100
Cc1cc2nc3c(C#N)c4c(c(Cl)n3c2cc1C)CCC4	30.4	> 100	50.1	> 100		39.3	51	29.6	32.1	> 100		49.5					> 100		49
C=C1C(=O)O[C@H]2C1C[C@H](O)/C(C)=C/CC[C@@]1(C)O[C@H]21 (some centres not stated)	> 100		22.6	18.2	23.9	21.6	31.5	28.6	31.9	82.5	39.9		28.3	28.6	27.6	49.5		30.3	
CCCc1cn2c(/C=N/N=C(N)N)c(-c3ccc([N+](=O)[O-])cc3)nc2s1	1.39	10.6	54	1.19	3.18		2.76	1.6		2.16	3.55	9.84	3.05				2.71		
COc1ccccc1/C=C1\CCC(CN2CCOCC2)C1=O (configuration not stated)	34.2	32.4	28.7	14.2	18.8	11.5		22.9	30.6	34.6	32.2	28.6	29.3	31.4	21.8	31.4		26.9	29.8
CC(Cn1c(=O)oc2ccccc21)N(C)C (configuration not stated)	> 100	> 100	> 100	> 100	> 100	> 100	> 100	> 100	> 100	> 100	> 100	> 100	> 100		> 100	> 100		> 100	> 100

Structure (SMILES)	TGI (U251 CNS) [µM]	TGI (A498 renal) [µM]	TGI (SK-MEL-5 melanoma) [µM]	TGI (COLO 205 colon) [µM]	TGI (M14 melanoma) [µM]	TGI (SW-620 colon) [µM]	TGI (RPMI-8226 leukemia) [µM]	TGI (HCT-116 colon) [µM]	TGI (RXF 393 renal) [µM]	TGI (SF-295 CNS) [µM]	TGI (SK-MEL-2 melanoma) [µM]	TGI (SF-539 CNS) [µM]	TGI (IGROV1 ovarian) [µM]	TGI (UO-31 renal) [µM]	TGI (MCF7 breast) [µM]	TGI (DU-145 prostate) [µM]	TGI (T-47D breast) [µM]	TGI (MDA-N) [µM]	TGI (BT-549 breast) [µM]
O=C(/C=C/c1ccc(Cl)cc1)c1nc2ccccc2[nH]1		> 100	> 100	50.4	> 100	53.1	5.18	36.3		> 100	> 100	50.6	> 100	24	9.04	33.1	38.9		> 100
CN(CCO)c1nc(=O)c2c(n1C1OC(CO)C(O)C(O)C1O)CCCC2 (configuration not stated)	> 100		> 100	> 100	> 100	> 100	> 100	> 100	> 100	> 100	> 100	> 100	> 100	> 100					
O=C1CS(=O)c2ccccc2N1 (configuration not stated)	> 100	> 100	> 100	> 100	> 100		> 100	> 100	> 100	> 100	> 100	> 100	> 100	> 100					
O=S1(=O)OCCOS(=O)(=O)C1(Br)Br			> 100	> 100	> 100	> 100	> 100	> 100		> 100	> 100	> 100		> 100					
C/C(CC(=O)Nc1cccc([N+](=O)[O-])c1)=N/NC(N)=S	> 100		> 100	> 100	> 100	> 100	> 100	> 100	> 100	> 100	> 100	> 100	> 100	> 100					
COc1cc2c(c(OC)c1)C(=O)C(=O)C(CC1(C)OCCCO1)=C2	28.7	31.3	18.1	9.58	24.3	3.23	> 100	10.3	8.71	27.1	30.3	32	27.8	25.6					
CC(C)OP(=O)(OC(C)C)/C(=N/Nc1ccc([N+](=O)[O-])cc1)NNC(=O)c1ccccc1	76.7		32	> 100	> 100	> 100	> 100	> 100			> 100	> 100		> 100					
CCCCCCCC(=O)OC(COC(=O)Cc1ccccc1)COC(=O)C(C)(C)C (configuration not stated)	> 100	> 100	> 100	> 100	> 100	> 100	> 100	> 100		> 100			> 100	> 100					
COc1c(N2CCCCC2)c2c(=O)c3ccccc3oc2c2c3ccccc3n(C)c12	> 100		> 100	> 100	> 100	> 100	> 100	> 100	> 100	> 100	> 100	> 100		> 100	> 100	> 100		> 100	> 100
COc1cc2cnc3c4cc(O)ccc4ccc3c2cc1OC	> 100		> 100	59.8	> 100	> 100	> 100	> 100	> 100	> 100	87.2	> 100	> 100	> 100					
C[C@H]1[C@H](C)CC[C@]2(C(=O)O)CCC3(COC(=O)/C=C/c4ccc(O)cc4)C(=CCC4[C@@]5(C)CC[C@H](O)C(C)(C)C5CC[C@]43C)[C@H]12 (some centres not stated)	9.92	15.3	24.4	17.9	24.9	18	49.8	14.2	23.5	13.2	43.2	16.5	15.4	15.6					
COc1ccccc1NC(=O)C(=O)C(c1cnc2ccc([N+](=O)[O-])cc2n1)[N+](=O)[O-] (configuration not stated)	> 100	> 100	> 100	> 100	> 100	> 100	> 100	> 100	> 100	> 100	> 100	> 100	> 100	> 100					
Cc1cc(N(CCC#N)CCC#N)ccc1/C=C(\N=[N+]=[N-])C(=O)NC(=O)COc1ccccc1	> 100	> 100	> 100	> 100	> 100	> 100	> 100	> 100	97.5	> 100	> 100	> 100	> 100	> 100					
COc1ccc(OC)c(CCc2ccccc2CC(=O)O)c1	> 100	> 100	> 100	> 100	> 100	> 100	> 100	> 100	> 100	> 100	> 100	> 100	> 100	> 100					
O=C1Nc2n[nH]c(=S)n2NC12c1ccccc1-c1ccccc12	> 100	> 100	> 100	> 100	> 100	> 100		93.6	> 100	> 100	> 100	> 100	> 100	> 100	> 100	> 100		> 100	> 100
